Laboratory results published in patent publication US20180318199A1, “Pharmaceutical Composition Having Anti-Aging Properties against High-Glucose” (TAIWAN LEADER BIOTECH CORP., priority 2017, published 2018).

Assays:
HNDFs [1] = assay: Intracellular ROS by flow cytometry (DCFH-DA) in HNDFs; type: cell-based, human; conditions: 24 h; for intracellular ROS generation: ANM 10 μM or NAC 100 μM + HG 30 mM, HG alone 426.2%; for ROS generation, compound alone: ANM 10 μM or NAC 100 μM without HG
Description: Next, please refer to FIG. 4A˜FIG. 4H, which are views showing HG-induced senescence inhibited by ANM in HNDFs. As shown in the figures, it is examined whether ANM inhibits HG-induced ROS generation. In FIG. 4A, HNDFs are incubated with ANM (10 μM) or NAC (100 μM) either in the presence or absence of HG (30 mM) for 24 h. The intracellular ROS level is determined by flow cytometry using DCH-DA flurogenic probe. […] As is shown, HNDFs are co-incubated with HG and ANM or NAC for 24 h, and intracellular ROS levels are measured by flow cytometry.
Moreover, in FIG. 6B, HNDFs are transfected with specific siRNA against Nrf2 or control siRNA. […] Intracellular ROS is measured by DCFH-DA assay.
Intracellular ROS accumulation is determined using the dye DCFH2-DA following a procedure described earlier. Briefly, HNDFs (1×10^5 cells/well) are seeded in 6-well plates and incubated with HG in the presence or absence of test samples for 24 h. At the end of the incubation, the culture supernatant is removed and cells are washed twice with PBS. DCFH2-DA […] is mixed with 500 μL MEM and added to the culture plate. After incubation for 30 minutes, cells are collected by trypsin and the fluorescence shift is quantified using a flow cytometer (Beckman Coulter). Data are acquired and analyzed using CXP software (Beckman Coulter).

HNDFs [2] = assay: Cell-cycle distribution by flow cytometry (PI) in HNDFs; type: cell-based, human; conditions: ANM 10 μM or NAC 100 μM + HG 30 mM, 72 h; HG 71.2%, NG 46.5%
Description: Senescence is well-defined as an irreversible arrest in the G0/G1 phase of the cell-cycle, triggered by various physiological and chemical stimuli including HG. It is thus paradoxical that HG-induced senescence is associated with cell-cycle arrest. Please refer to FIG. 3A˜FIG. 3C, which are views showing HG-induced growth arrest blocked by ANM in HNDFs. As shown in the figures, to further explore this paradoxical relationship, HNDFs are treated with HG and ANM or N-acetylcysteine (NAC). In FIG. 3A, HNDFs are incubated with ANM (10 μM) or NAC (100 μM) in the presence of HG (30 mM) for 72 h. Cell-cycle distribution is measured by flow cytometer using PI. Percentage of cell population in each transition phase is shown in a histogram view.
HNDFs at a density of 5×10^5 cells in 10 cm dishes are treated with ANM or NAC in the presence or absence of HG for 72 h. Cells are collected, washed with PBS and fixed in 95% cold-ethanol, and kept at −20° C. overnight. The cell pellet is then washed again with PBS and centrifuged at 1500×g for 5 min. The pellet is re-suspended in 1 mL PI/Triton X-100 (20 μg/mL PI, 0.1% Triton X-100 and 0.2 mg/mL RNAse) and incubated on ice for 30 min. The total cellular DNA content is analyzed with a flow cytometer (Beckman Coulter FC500). Data are acquired and analyzed using CXP software (Beckman Coulter).

[3] = Cell-free DPPH free-radical scavenging assay; type: biochemical; conditions: cell-free system
Description: Therefore, next to determine whether ANM acts directly as a free-radical scavenger, a cell-free DPPH free-radical scavenging assay is performed. In FIG. 5A, to determine the free-radical scavenging effect of ANM, cell-free DPPH assay is performed.

HO-1 and NQO-1 = assay: Western blot of HO-1 and NQO-1 in HUVECs; type: cell-based, human; conditions: for NQO-1 expression in HUVECs: western blot, HG
Description: The intracellular ROS level is quantified by utilizing DCFH-DA assay. […] However, treatment of HUVECs with ANM resulted reduced ROS levels (6.1-fold), compared with HUVECs in HG that are not treated with ANM. In addition, in FIG. 9G, western blot analysis is performed to determine the protein expression levels of HO-1 and NQO-1.
Cells are lysed by either RIPA lysis buffer or nuclear and cytoplasmic extraction reagents (Thermo Fisher Scientific). Protein concentrations are determined by Bio-Rad protein assay reagent (Bio-Rad Laboratories, Hercules, Calif.). Equal amounts of protein samples (60 μg) are separated by 7-12% SDS-PAGE and the separated proteins are transferred onto polyvinylidene […] (PVDC) membrane overnight. The transferred protein membranes are blocked with 5% non-fat dried milk for 30 min, followed by incubation with specific primary antibodies overnight, and either horseradish peroxidase-conjugated goat anti-rabbit or anti-mouse antibodies for 2 h. The blots are detected using VL Chemi-Smart 3000 (Viogene Biotek, Sunnyvale, Calif.) with the enhanced chemiluminescence (ECL) western blotting reagent (Millipore, Billerica, Mass.).

SMP30 = SMP30 immunofluorescence in HNDFs; type: cell-based, human; conditions: ANM 10 μM or NAC 100 μM + HG 30 mM, 72 h
Description: In FIG. 4C, SMP30 expression provided by ANM is examined. HNDFs are incubated with ANM (10 μM) or NAC (100 μM) in the presence or absence of HG (30 mM) for 72 h. The protein expression of SMP30 is measured by immunofluorescence using SMP30 specific primary antibody and fluorescein isothiocyanate-conjugated secondary antibody (green). The cellular localization of SMP30 is photographed using a fluorescence microscope. 4′,6-diamidino-2-phenylindole (DAPI) (1 μM) is used to stain the nucleus.
HNDFs at a density of 1×10^4 cells/well are cultured in an eight-well glass Nunc Lab-Tek chamber (ThermoFisher Scientific, Waltham, Mass.). Cells are treated with ANM or NAC in the presence or absence of HG for 2-72 h. After incubation, culture medium is removed and cells are fixed in 4% paraformaldehyde for 15 min, permeabilized with 0.1% Triton X-100 for 10 min, washed and blocked with 10% FBS in PBS, and then incubated overnight with the corresponding primary antibodies in 1.5% FBS. The cells are then incubated with the fluorescein isothiocyanate (FITC)-conjugated secondary antibody (Alexa fluor 488, ThermoFisher Scientific) for another 1 h in 6% bovine serum albumin (BSA). Next, the cells are stained with 1 μg/mL 4′,6-diamidino-2-phenylindole (DAPI, Cell Signaling Technology) for 5 min, washed with PBS, and visualized using a fluorescence microscope (Motic Electric Group) at 40× magnification.

Structure (SMILES) | HG-induced ROS generation, scrambled siRNA cells (HNDFs [1]; ANM 10 μM + HG) | ROS generation, siNrf2 transfected cells (HNDFs [1]; ANM 10 μM + HG) | intracellular ROS generation (HNDFs [1]) [%] | ROS generation, compound alone (HNDFs [1]) | cell population in the G0/G1 phase (HNDFs [2]) | free-radical scavenging effect (DPPH) [3] | HO-1 expression in HUVECs in HG (HO-1 and NQO-1; ANM 10 μM or RES 5 μM + HG) | NQO-1 expression in HUVECs (HO-1 and NQO-1) | HG-induced reduction in SMP30 (immunofluorescence) (SMP30)
C=C(CCC(C)C1CCC2C3=C(C(=O)C(O)C21C)C1(C)CCC(O)C(C)C1CC3)C(C)C(=O)O (stereo not drawn) [ANM, antcin M] | significantly inhibits | increased ROS generation | 200.8 | does not significantly increase | 49.5% | fails to scavenge free radicals | significantly increase | unaffected | significantly prevented
CC(=O)N[C@@H](CS)C(=O)O [NAC, N-acetylcysteine, reference compound] |  |  | 176.58 | does not significantly increase | partially blocks | potent free-radical scavenging effect |  | unaffected | partially prevented
